This is an account of results in PMC8791557 (Environment international, 2021).

The Tmax is the time from dosing to the highest level. By half-life is commonly meant the time needed for the level to fall by half in the phase considered.

Like-named read-outs stand apart in the source and are kept apart here.

Series [1] is classed as in vivo, human. The following applies: for Tmax of metabolite: median; for k1e / k12 / k21 / ka / α / β: two-compartmental model.
The conditions of series [2]: human, in vivo; cited from earlier work.
Setting [3] is: metabolite in plasma after 25 ng [14C]-BaP oral.
The mark [4] stands for this setting: metabolite in plasma after 50 ng [14C]-BaP oral.
[5] abbreviates: metabolite in plasma after 100 ng [14C]-BaP oral.
Where [6] appears, read: metabolite in plasma after 250 ng [14C]-BaP oral.
Where [7] appears, read: 50 ng [14C]-BaP oral, mean ± SD.
Where [8] appears, read: 100 ng [14C]-BaP oral, mean ± SD.
[9] abbreviates: 250 ng [14C]-BaP oral, mean ± SD.

With `Oc1ccc2ccc3c4ccccc4cc4ccc1c2c43` [3-OH, 3 - OH BaP], the Tmax of metabolite in series [1] (setting [3]) was 1.0 h; in series [1] (setting [4]), 1.25 h; in series [1] (setting [5]), 1.0 h; in series [1] (setting [6]), 1.5 h.
For `c1ccc2c(c1)cc1ccc3cccc4ccc2c1c34` [[^14C]-BaP, Benzo[a]pyrene], the k1e in series [1] (25 ng [14C]-BaP oral, n = 1) turned out to be 0.0068 NA 1/h; in series [1] (setting [7]) it was 0.694 ± 0.412 n = 5 1/h; in series [1] (setting [8]) it was 0.558 ± 0.897 n = 6 1/h; in series [1] (setting [9]) it was 1.25 ± 1.71 n = 7 1/h. For the same compound, the k12 in series [1] (25 ng [14C]-BaP oral, n = 1) stood at 0.331 NA 1/h; in series [1] (setting [7]) it was 0.83 ± 1.11 n = 5 1/h; in series [1] (setting [8]), 2.60 ± 3.45 n = 6 1/h; in series [1] (setting [9]), 4.27 ± 6.92 n = 7 1/h. The k21 amounted to 0.028 NA 1/h in series [1] (25 ng [14C]-BaP oral, n = 1); 0.270 ± 0.253 n = 5 1/h in series [1] (setting [7]); 0.190 ± 0.180 n = 6 1/h in series [1] (setting [8]); 0.290 ± 0.564 n = 7 1/h in series [1] (setting [9]). Further, the ka in series [1] (25 ng [14C]-BaP oral, n = 1) is 592 NA 1/h; in series [1] (setting [7]), 1.30 × 10^7 ± 2.90 × 10^7 n = 5 1/h; in series [1] (setting [8]), 3.52 ± 4.75 n = 6 1/h; in series [1] (setting [9]), 43.2 ± 111 n = 7 1/h. Moreover, the α in series [1] (25 ng [14C]-BaP oral, n = 1) came out at 0.366 NA 1/h; in series [1] (setting [7]) it was 1.69 ± 0.89 n = 5 1/h; in series [1] (setting [8]) it was 3.33 ± 4.28 n = 6 1/h; in series [1] (setting [9]), 5.80 ± 6.64 n = 7 1/h. For the same compound, the β was 5.03 × 10^−4 NA 1/h in series [1] (25 ng [14C]-BaP oral, n = 1); 0.105 ± 0.164 n = 5 1/h in series [1] (setting [7]); 0.020 ± 0.021 n = 6 1/h in series [1] (setting [8]); 0.014 ± 0.019 n = 7 1/h in series [1] (setting [9]). The “increase of compartmental model apparent volume of distribution” value in series [1] (both, human, in vivo) amounted to 4.6 ×. In series [1] (both, human, in vivo), the “increase of mean non-compartmental apparent volume of distribution” value amounted to 15 ×. In addition, the Tmax in series [1] (both, human, in vivo, Tmax) was 0.5 to 1 h; in series [1] (both, human, in vivo, median Tmax) it was 0.5 h; in series [1] (both, human, in vivo, po, Tmax (Median)), 0.5 h; in series [1] (both, human, in vivo, po, Tmax (Range)), 0.5 to 4 h; in series [1] (both, human, in vivo, po, median Tmax), 0.5 h; in series [2], 0.75 to 1.0 h. For the same compound, the half-life in series [1] (both, human, in vivo, average half-life across doses) was 46.5 ± 58.2 h; in series [1] (both, human, in vivo, po, α half-life), 0.484 ± 0.187 h; in series [1] (human, in vivo, po, Half-life) it was 4.31 h; in series [1] (human, in vivo, po, α half-life) it was 1.89 h; in series [1] (human, in vivo, po, β half-life), 1310 h. Besides, in series [1] (human, in vivo), the “AUC0–48h, range of dose-group means” value is 12.2 ± 14.5 to 88.5 ± 14.1. In addition, in series [1] (human, in vivo), the “Cmax, range of dose-group means” value is given as 2.51 ± 2.53 to 13.8 ± 9.52. For the same compound, in series [1] (human, in vivo, po), the Clearance came to 811 n = 1 L/h.
Regarding `Oc1ccc2cc3ccc4cccc5ccc(c2c1)c3c45` [9-OH, 9 - OH BaP], the Tmax of metabolite in series [1] (setting [3]) was determined as 0.5 h; in series [1] (setting [4]), 1.0 h; in series [1] (setting [5]), 1.0 h; in series [1] (setting [6]), 0.75 h.
